What follows are compounds tested against C-C chemokine receptor type 5 (Homo sapiens, UniProt P51681) (assay: Antagonist activity at Homo sapiens (human) CCR5 receptor).
Sequence of C-C chemokine receptor type 5 (P51681 whole entry): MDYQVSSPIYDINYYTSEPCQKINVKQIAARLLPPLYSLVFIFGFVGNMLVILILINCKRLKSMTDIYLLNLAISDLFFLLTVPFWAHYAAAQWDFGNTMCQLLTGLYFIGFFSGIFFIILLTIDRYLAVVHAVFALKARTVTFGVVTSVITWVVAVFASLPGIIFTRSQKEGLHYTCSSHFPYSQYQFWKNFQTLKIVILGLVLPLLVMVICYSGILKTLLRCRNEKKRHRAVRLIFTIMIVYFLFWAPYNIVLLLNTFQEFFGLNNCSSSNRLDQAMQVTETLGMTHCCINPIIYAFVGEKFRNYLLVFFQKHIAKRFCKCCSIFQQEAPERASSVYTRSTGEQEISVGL

In order of falling IC50:
1. CN(C[C@@H](CCN1CCC2(CC1)CC(O)c1ccccc12)c1cccc(Cl)c1)S(=O)(=O)c1ccccc1 (stereo partly specified)  24000 nM
2. CN(C[C@@H](CCN1CCC2(CC1)C[S+]([O-])c1ccccc12)c1ccc(Cl)c(Cl)c1)S(=O)(=O)c1cccc2cccnc12 (stereo partly specified)  14000 nM
3. CN(C[C@@H](CCN1CCC(c2ccccc2)CC1)c1cccc(Cl)c1)S(=O)(=O)c1ccccc1  10000 nM
4. CN(C[C@@H](CCN1CCC2(CC1)C[S+]([O-])c1ccccc12)c1ccc(Cl)c(Cl)c1)S(=O)(=O)c1cccnc1 (stereo partly specified)  8490 nM
5. CN(C[C@@H](CCN1CCC2(CC1)CC(=O)Nc1ccccc12)c1ccc(Cl)c(Cl)c1)S(=O)(=O)c1cccc([N+](=O)[O-])c1  7000 nM
6. CN(C[C@@H](CCN1CCC2(CC1)C[S+]([O-])c1ccccc12)c1ccc(Cl)c(Cl)c1)S(=O)(=O)c1ccc2c(c1)CCC2 (stereo partly specified)  5900 nM
7. CN(C[C@@H](CCN1CCC2(CC1)Cc1ccccc1O2)c1cccc(Cl)c1)S(=O)(=O)c1ccccc1  4000 nM
8. CN(C[C@@H](CCN1CCC2(CC1)C[S+]([O-])c1ccccc12)c1ccc(Cl)c(Cl)c1)S(=O)(=O)c1cccs1 (stereo partly specified)  3600 nM
9. CN(C[C@@H](CCN1CCC2(CC1)C[S+]([O-])c1ccccc12)c1ccc(Cl)c(Cl)c1)S(=O)(=O)c1ccc2ccccc2c1 (stereo partly specified)  3400 nM
10. CN(C[C@@H](CCN1CCC2(CC1)CC(=O)c1ccccc12)c1cccc(Cl)c1)S(=O)(=O)c1ccccc1  3400 nM
11. CN(C)S(=O)(=O)N(C)C[C@@H](CCN1CCC2(CC1)C[S+]([O-])c1ccccc12)c1ccc(Cl)c(Cl)c1 (stereo partly specified)  2700 nM
12. CN(C[C@@H](CCN1CCC2(CC1)C[S+]([O-])c1ccccc12)c1ccc(Cl)c(Cl)c1)S(=O)(=O)c1cccc2ccccc12 (stereo partly specified)  2600 nM
13. CN(C[C@@H](CCN1CCC(c2ccc(F)cc2)CC1)c1cccc(Cl)c1)S(=O)(=O)c1ccccc1  2500 nM
14. CN(C[C@@H](CCN1CCC(c2cccc(C(F)(F)F)c2)CC1)c1cccc(Cl)c1)S(=O)(=O)c1ccccc1  2000 nM
15. CCCCCCCCS(=O)(=O)N(C)C[C@@H](CCN1CCC2(CC1)C[S+]([O-])c1ccccc12)c1ccc(Cl)c(Cl)c1 (stereo partly specified)  1800 nM
16. CN1C(=O)c2ccccc2C12CCN(CC[C@H](CN(C)S(=O)(=O)c1ccccc1)c1cccc(Cl)c1)CC2  1500 nM
17. CN(C[C@@H](CCN1CCC2(CC1)CNc1ccccc12)c1cccc(Cl)c1)S(=O)(=O)c1ccccc1  1200 nM
18. Cc1ccccc1C1CCN(CC[C@H](CN(C)S(=O)(=O)c2ccccc2)c2cccc(Cl)c2)CC1  1200 nM
19. CN(C[C@@H](CCN1CCC2(CC1)CS(=O)(=O)c1ccccc12)c1ccc(Cl)c(Cl)c1)S(=O)(=O)c1cccs1  1200 nM
20. CN(C[C@@H](CCN1CCC2(CC1)C[S+]([O-])c1ccccc12)c1ccc(Cl)c(Cl)c1)S(=O)(=O)c1cncc2ccccc12 (stereo partly specified)  1000 nM
21. CN(C[C@@H](CCN1CCC2(CC1)C[S+]([O-])c1ccccc12)c1ccc(Cl)c(Cl)c1)S(=O)(=O)c1cn(C)cn1 (stereo partly specified)  1000 nM
22. CN(C[C@@H](CCN1CCC2(CC1)C[S+]([O-])c1ccccc12)c1ccc(Cl)c(Cl)c1)S(=O)(=O)c1ccc(-c2ccccc2)cc1 (stereo partly specified)  1000 nM
23. COc1ccccc1C1CCN(CC[C@H](CN(C)S(=O)(=O)c2ccccc2)c2cccc(Cl)c2)CC1  1000 nM
24. CN(C[C@@H](CCN1CCC2(CC1)CS(=O)(=O)c1ccccc12)c1cccc(Cl)c1)S(=O)(=O)c1ccccc1  1000 nM
25. CN(C[C@@H](CCN1CCC2(CC1)C[S+]([O-])c1ccccc12)c1ccc(Cl)c(Cl)c1)S(=O)(=O)c1cccc(Cl)c1 (stereo partly specified)  1000 nM
26. CN(C[C@@H](CCN1CCC2(CCc3ccccc32)CC1)c1cccc(Cl)c1)S(=O)(=O)c1ccccc1  899 nM
27. CN(C[C@@H](CCN1CCC2(CC1)CS(=O)(=O)c1ccccc12)c1ccc(Cl)c(Cl)c1)S(=O)(=O)c1cccc([N+](=O)[O-])c1  800 nM
28. CN(C[C@@H](CCN1CCC2(CC1)CS(=O)(=O)c1ccccc12)c1ccc(Cl)c(Cl)c1)S(=O)(=O)c1ccc([N+](=O)[O-])cc1  700 nM
29. CN(C[C@@H](CCN1CCC2(CC1)C[S+]([O-])c1ccccc12)c1cccc(Cl)c1)S(=O)(=O)c1ccccc1 (stereo partly specified)  700 nM
30. CN(C[C@@H](CCN1CCC(Cc2ccccc2)CC1)c1cccc(Cl)c1)S(=O)(=O)c1ccccc1  650 nM
31. CN(C[C@@H](CCN1CCC2(CC1)CNC(=O)c1ccccc12)c1ccc(Cl)c(Cl)c1)S(=O)(=O)c1cccc([N+](=O)[O-])c1  600 nM
32. CN(C[C@@H](CCN1CCC2(CC1)CSc1ccccc12)c1cccc(Cl)c1)S(=O)(=O)c1ccccc1  600 nM
33. CN(C[C@@H](CCN1CCC(CCc2ccccc2)CC1)c1cccc(Cl)c1)S(=O)(=O)c1ccccc1  600 nM
34. CN(C[C@@H](CCN1CCC2(CC1)C[S+]([O-])c1ccccc12)c1ccc(Cl)c(Cl)c1)S(=O)(=O)C1CCCC1 (stereo partly specified)  500 nM
35. CN(C[C@@H](CCN1CCC2(CC1)C[S+]([O-])c1ccccc12)c1ccc(Cl)c(Cl)c1)S(=O)(=O)c1ccccc1Cl (stereo partly specified)  450 nM
36. CN(C[C@@H](CCN1CCC2(CC1)CSc1ccccc12)c1ccc(Cl)c(Cl)c1)S(=O)(=O)c1ccccc1  400 nM
37. CN(C[C@@H](CCN1CCC2(CC1)CS(=O)(=O)c1ccccc12)c1ccc(Cl)c(Cl)c1)S(=O)(=O)c1ccccc1  400 nM
38. Cc1ccccc1N1CCN(CC[C@H](CN(C)S(=O)(=O)c2ccccc2)c2cccc(Cl)c2)CC1  350 nM
39. COc1ccc(S(=O)(=O)N(C)C[C@@H](CCN2CCC3(CC2)C[S+]([O-])c2ccccc23)c2ccc(Cl)c(Cl)c2)cc1 (stereo partly specified)  350 nM
40. CN(C[C@@H](CCN1CCC2(CC1)C[S+]([O-])c1ccccc12)c1ccc(Cl)c(Cl)c1)S(=O)(=O)c1ccc(Cl)cc1 (stereo partly specified)  350 nM
41. CN(C[C@@H](CCN1CCC2(CC1)NC(=O)c1ccccc12)c1cccc(Cl)c1)S(=O)(=O)c1ccccc1  300 nM
42. CN(C[C@@H](CCN1CCC(c2ccc(Cl)cc2)CC1)c1cccc(Cl)c1)S(=O)(=O)c1ccccc1  250 nM
43. CN(C[C@@H](CCN1CCC2(CC1)C[S+]([O-])c1ccccc12)c1ccc(Cl)c(Cl)c1)S(C)(=O)=O (stereo partly specified)  150 nM
44. CN(C[C@@H](CCN1CCC2(CC1)C[S+]([O-])c1ccccc12)c1ccc(Cl)c(Cl)c1)S(=O)(=O)Cc1ccccc1 (stereo partly specified)  100 nM
45. CN(C[C@@H](CCN1CCC(CCCc2ccccc2)CC1)c1cccc(Cl)c1)S(=O)(=O)c1ccccc1  50 nM
46. CN(C[C@@H](CCN1CCC2(CC1)C[S+]([O-])c1ccccc12)c1ccc(Cl)c(Cl)c1)S(=O)(=O)C1CCCCC1 (stereo partly specified)  50 nM

Source: ChEMBL document CHEMBL3046641, “QSAR study of some CCR5 antagonists as anti-HIV agents using radial basis function neural network and general regression neural network on the basis of principal components” (Med Chem Res, 2012)
